For orientation: IC50 means the concentration that gives 50% inhibition. The low end stands for greater potency in that assay, the high end for weaker potency in that assay.

For 6 compounds, Activity and IC50 results are on record in ChEMBL document CHEMBL4261621, “Synthesis of enamino-2-oxindoles via conjugate addition between α-azido ketones and 3-alkenyl oxindoles: Cytotoxicity evaluation and apoptosis inducing studies” (Bioorg Med Chem Lett, 2018).

For experiment [1], the system named is HCT-15. Description: Cytotoxicity against human HCT15 cells at 30 uM after 48 hrs by MTT assay relative to control. In kind it is functional. Background: Tetrazolium dyes change colour on reduction, which living cells bring about.
Experiment [2] concerns HCT-116. Description: Cytotoxicity against human HCT116 cells at 30 uM after 48 hrs by MTT assay relative to control. The experiment is classed as functional.
For experiment [3], the system named is NCI-H460. As to the kind of experiment: Cytotoxicity against human NCI-H460 cells at 30 uM after 48 hrs by MTT assay relative to control. In kind it is functional.
In experiment [4] the test system is A549. As to the kind of experiment: Cytotoxicity against human A549 cells at 30 uM after 48 hrs by MTT assay relative to control. The experiment is classed as functional.
Experiment [5] deals with MDA-MB-231. As to the kind of experiment: Cytotoxicity against human MDA-MB-231 cells at 30 uM after 48 hrs by MTT assay relative to control. The experiment is classed as functional.
Experiment [6] concerns HeLa. As to the kind of experiment: Cytotoxicity against human HeLa cells at 30 uM after 48 hrs by MTT assay relative to control. In kind it is functional.
For experiment [7], the system named is HCT-116. Description: Cytotoxicity against human HCT116 cells after 72 hrs by MTT assay. The note with it: HCT-116, 72 h. The experiment is classed as functional, cell-based.
Experiment [8] relates to HCT-15. Description: Cytotoxicity against human HCT15 cells after 72 hrs by MTT assay. In kind it is functional, cell-based. The note with it: HCT-15, 72 h.
Experiment [9] relates to NCI-H460. Description: Cytotoxicity against human NCI-H460 cells after 72 hrs by MTT assay. The experiment is classed as functional, cell-based. The following applies: NCI-H460, 72 h.
Experiment [10] concerns A549. As to the kind of experiment: Cytotoxicity against human A549 cells after 72 hrs by MTT assay. The experiment is classed as functional, cell-based. The following applies: A549, 72 h.
Experiment [11] has as its system MDA-MB-231. As to the kind of experiment: Cytotoxicity against human MDA-MB-231 cells after 72 hrs by MTT assay. In kind it is functional, cell-based. The note with it: MDA-MB-231, 72 h.
The test system of experiment [12] is HeLa. As to the kind of experiment: Cytotoxicity against human HeLa cells after 72 hrs by MTT assay. In kind it is functional, cell-based.

Where only a bound is given, the exact number is not on record here.

Regarding `CCOC(=O)/C(=C(\N)C(=O)c1ccccc1)C1C(=O)N(Cc2ccccc2)c2ccc(Br)cc21` (stereo unspecified), the Activity in the experiment on HCT-15 [1], with HCT-116 [2], with NCI-H460 [3], with A549 [4], in the experiment on MDA-MB-231 [5] and with HeLa [6] was above 50% throughout. Moreover, the IC50 with HCT-116 [7] was found to be 28.7 µM; in the experiment with HCT-15 [8] it was 26.1 µM; in the experiment with NCI-H460 [9], 18.5 µM; in the experiment on A549 [10], 27.7 µM; in the experiment with MDA-MB-231 [11], 28.2 µM; in the experiment with HeLa [12], 25.6 µM.

`CCOC(=O)/C(=C(\N)C(=O)c1ccccc1)C1C(=O)N(Cc2ccc(Br)cc2)c2ccccc21` (stereo unspecified): the Activity in the experiment on HCT-15 [1], in the experiment on HCT-116 [2], with NCI-H460 [3], in the experiment on A549 [4], in the experiment with MDA-MB-231 [5] and with HeLa [6] was above 50% in each case. In addition, the IC50 with HCT-116 [7] was found to be 3.26 µM; in the experiment on HCT-15 [8] it was 3.17 µM; in the experiment with NCI-H460 [9], 3.9 µM; in the experiment with A549 [10], 3.23 µM; in the experiment on MDA-MB-231 [11], 7.13 µM; in the experiment with HeLa [12], 7.28 µM.

`CCOC(=O)/C(=C(\N)C(=O)c1ccc(OC)cc1)C1C(=O)N(Cc2ccccc2)c2ccc(Cl)cc21` (stereo unspecified): the Activity with HCT-15 [1], with HCT-116 [2], in the experiment on NCI-H460 [3], with A549 [4], in the experiment on MDA-MB-231 [5] and in the experiment with HeLa [6] was above 50% in each case. In addition, the IC50 turned out to be 3.82 µM in the experiment with HCT-116 [7]; 3.15 µM in the experiment with HCT-15 [8]; 3.32 µM with NCI-H460 [9]; 3.25 µM with A549 [10]; 6.96 µM in the experiment on MDA-MB-231 [11]; 3.72 µM in the experiment with HeLa [12].

As to `COC(=O)/C(=C(\N)C(=O)c1ccccc1)C1C(=O)N(Cc2ccccc2)c2ccc(C)cc21` (stereo unspecified), the Activity in the experiment on HCT-15 [1], with HCT-116 [2], in the experiment on NCI-H460 [3], with A549 [4], in the experiment on MDA-MB-231 [5] and in the experiment on HeLa [6] was above 50% throughout. For the same compound, the IC50 in the experiment with HCT-116 [7] is 3.31 µM; in the experiment on HCT-15 [8] it was 2.67 µM; in the experiment on NCI-H460 [9] it was 1.51 µM; in the experiment with A549 [10] it was 6.6 µM; in the experiment with MDA-MB-231 [11], 13.9 µM; with HeLa [12], 6.28 µM.

Consider `COC(=O)/C(=C(\N)C(=O)c1ccccc1)C1C(=O)Nc2ccc(Br)cc21` (stereo unspecified), for which the Activity with HCT-15 [1], with HCT-116 [2], in the experiment with NCI-H460 [3], with A549 [4], in the experiment on MDA-MB-231 [5] and with HeLa [6] was above 50% throughout. Further, the IC50 with HCT-116 [7] worked out at 25.9 µM; in the experiment with HCT-15 [8], 28.5 µM; with NCI-H460 [9], 27.6 µM; in the experiment on A549 [10], 13 µM; in the experiment with MDA-MB-231 [11], 6.85 µM; in the experiment with HeLa [12], 12.2 µM.

For the compound `O=c1[nH]cc(F)c(=O)[nH]1` [FLUOROURACIL], the IC50 with HCT-116 [7] amounted to 11.6 µM; with HCT-15 [8], 11.9 µM; with NCI-H460 [9] it was 11.8 µM; in the experiment with A549 [10], 4.3 µM; in the experiment on MDA-MB-231 [11], 21.1 µM; in the experiment on HeLa [12] it was 10.8 µM.
